Experimental data published in US10059722B2, “Cephalosporin derivatives and methods of use” (priority 2012, dated 2018).
Converted amounts (≈) assume the structure as drawn. “Also recorded” adds a separate entry of the source. Read-outs that look alike come from different tables or passages of the source.

Tests used:
Escherichia coli = assay: Antibiotic spectrum: Escherichia coli; type: cell-based; details: Gram negative, replicating conditions, n=1 experiment; for MIC: Escherichia coli, read-out: MIC against Escherichia coli
HepG2 cells = type: cell-based; details: human, 2 day
Protocol: Three lead compounds were identified in the first round of high throughput screening (700 compounds), which had minimal inhibitory concentrations (MIC) of 0.4-0.8 μg/mL after a six day exposure to drug (NRd6) in the model of non-replication at pH 5.0, and LD50's of 100 to >100 μg/mL against HepG2 cells (a 2 day exposure).
Furthermore, LD50 values were determined using a human hepatoma cell line (HepG2) using intracellular ATP levels as a measurement that correlated with cellular viability.

Pseudomonas aeruginosa = assay: Antibiotic spectrum: Pseudomonas aeruginosa; type: cell-based; details: Gram negative, replicating conditions, n=1 experiment; for MIC: Pseudomonas aeruginosa, read-out: MIC against Pseudomonas aeruginosa
[1] = system: replicating M. tuberculosis; assay: MIC under replication (R) conditions; type: cell-based, Mycobacterium tuberculosis; details: for MIC: Mycobacterium tuberculosis
Staphylococcus aureus = assay: Antibiotic spectrum: Staphylococcus aureus; type: cell-based; details: Gram positive, replicating conditions, n=1 experiment; for MIC: Staphylococcus aureus, read-out: MIC against Staphylococcus aureus
[2] = system: non-replicating M. tuberculosis; assay: microbe, parasite or virus in culture; type: cell-based, Mycobacterium tuberculosis; details: for MIC: Mycobacterium tuberculosis
Streptococcus = assay: Antibiotic spectrum: Streptococcus; type: cell-based; details: Gram positive, replicating conditions, n=1 experiment; for MIC: Streptococcus, read-out: MIC against Streptococcus
Candida albicans = assay: Activity against fungus Candida albicans; type: cell-based; details: pH 5.0
Protocol: In addition, activity was tested against the fungus Candida albicans at pH 5.0.

[3] = system: murine bone marrow-derived macrophages; assay: Toxicity to macrophages by visual inspection; details: 100 μg/mL; visual inspection at 400× magnification
[4] = system: non-replicating wild-type Mycobacterium tuberculosis (Mtb); assay: CFU-based cidal assay, non-replicating wild-type Mtb (FIG. 1); type: cell-based
[5] = system: wild-type Mtb infecting murine bone marrow-derived macrophages; assay: Killing of Mtb infecting bone marrow-derived macrophages (FIG. 2); type: cell-based, Mycobacterium tuberculosis; details: 100 μg/mL
[6] = 72 h, pH 5, Table 2, library samples (purity approximately 75%), read-out: MIC NR pH 5.0, day 3 exposure
[7] = 144 h, pH 5, Table 2, library samples (purity approximately 75%), read-out: MIC NR pH 5.0, day 6 exposure
[8] = pH 5, read-out: MIC NR pH 5, D3 exposure
[9] = pH 5, read-out: MIC NR pH 5, D6 exposure
[10] = read-out: MIC NR at 0.01 Inoc. and 3 Day Exposure to Drug, 7 Day Outgrowth, Table 8, ranges from multiple assays
[11] = read-out: MIC NR at 0.01 Inoc. and 3 Day Exposure to Drug, 11 Day Outgrowth, Table 8, ranges from multiple assays

| Compound | MIC (Escherichia coli) [µg/mL] | MIC against Escherichia coli (Escherichia coli) [µg/mL] | HepG2 Toxicity LD50 (HepG2 cells) | HepG2 toxicity (HepG2 cells) [µg/mL] | MIC against Pseudomonas aeruginosa (Pseudomonas aeruginosa) [µg/mL] | MIC (Pseudomonas aeruginosa) [µg/mL] | MIC against Staphylococcus aureus (Staphylococcus aureus) [µg/mL] | MIC (Staphylococcus aureus) [µg/mL] | MIC [2, 6] [µg/mL] | MIC [2, 7] [µg/mL] | MIC [2, 8] [µg/mL] | MIC [2, 9] [µg/mL] | MIC [2, 10] [µg/mL] | MIC [2, 11] [µg/mL] | MIC against Streptococcus (Streptococcus) [µg/mL] | MIC (Streptococcus) [µg/mL] | other results |
| --- | --- | --- | --- | --- | --- | --- | --- | --- | --- | --- | --- | --- | --- | --- | --- | --- | --- |
| CCCN[C@@H]1C(=O)N2C(C(=O)OCCC)=C(C)CS[C@H]12 [Compound 11c, (6R,7R)-propyl 3-methyl-8-oxo-7-(propylamino)-5-thia-1-azabicyclo[4.2.0]oct-2-ene-2-carboxylate] | > 100 | >100 | 100−>100 | >100 | >100 | > 100 | >100 | > 100 | 6.3 (≈ 21.1 µM) | 1.6 (≈ 5.36 µM) | 1.6 (≈ 5.36 µM) | 0.4 (≈ 1.34 µM) | 0.39 to 0.78 (≈ 1.31 to 2.61 µM) | 0.78 (≈ 2.61 µM) | >100 | > 100 | MIC ([1]; pH 6.6, read-out: MIC pH 6.6, R cells): > 100 µg/mL; selectivity index (LD50/MIC-NRd6) [2]: 129 |
| CCCOC(=O)C1=C(C)CS[C@@H]2[C@H](NC(=O)OCc3ccccc3)C(=O)N12 [Compound 13] | > 100 | >100 | 100 µg/mL | 100 | >100 | > 100 | >100 | > 100 | 6.3 (≈ 16.1 µM) | < 0.39 | 1.6 (≈ 4.1 µM) | 0.8 (≈ 2.05 µM) | 0.2 to 0.39 (≈ 0.512 to 0.999 µM) | 0.39 to 0.78 (≈ 0.999 to 2 µM) | >100 | > 100 | MIC (Candida albicans): > 100 µg/mL; MIC ([1]; pH 6.6, Table 3, resynthesized to >95% purity, read-out: MIC pH 6.6, R cells): > 100 µg/mL; MIC against replicating Mtb in presence or absence of clavulanic acid ([1]; with vs without clavulanic acid): identical; toxicity to the macrophages [3]: no toxicity; surviving Mtb (limit of detection) ([4]; 10 μg/mL, 7 days at 1% O2, OD580 0.01, 7H11-OADC agar): < 100 colony forming units; effect of clavulanate on killing of non-replicating Mtb ([4]; NR conditions, 7 days, presence or absence of clavulanate): clavulanate-independent; also recorded: not detected; cidality against non-replicating wild-type Mtb ([4]; starting inoculum 0.01): cidal activity; also recorded: significant cidality; killing of wild-type Mtb infecting macrophages [5]: kills; increased killing in IFNγ-activated BMDMs versus unactivated ([5]; +50 ng/mL IFNγ vs −IFNγ): approximately 0.5 log10; killing of intracellular Mtb, log10 reduction of CFU ([5]; activated macrophages, MOI 5, two independent experiments): ~1.5 log10 |
